US10479819B2 (priority 2014, dated 2019)
Starred links: 1 amine or outer side, 2 acyl side, 3 side chain; linkers in the order of their positions; H or OH if unused. Non-standard residues stand in square brackets, D forms with d. Residues, ends and D or L forms follow the SMILES beside them. Groups on a side chain read outwards from the residue. *: point of attachment. C18 diacid = O=C(O)CCCCCCCCCCCCCCCCC(=O)*; γGlu = O=C(O)[C@H](CCC(=O)[*:2])N[*:1]; PEG2 = NCCOCCOCCC(=O)O; Aib = CC(C)(N)C(=O)O

The molecules below were run against T1, human GLP-1R (Homo sapiens, UniProt P43220) (assay: In vitro activity on GLP-1R, CRE-luciferase HEK-293 cells). Details: ratio of EC50 GLP-1R to EC50 GCGR.
T1 construct: expressed in transfected cells
T1 sequence (P43220 24-463): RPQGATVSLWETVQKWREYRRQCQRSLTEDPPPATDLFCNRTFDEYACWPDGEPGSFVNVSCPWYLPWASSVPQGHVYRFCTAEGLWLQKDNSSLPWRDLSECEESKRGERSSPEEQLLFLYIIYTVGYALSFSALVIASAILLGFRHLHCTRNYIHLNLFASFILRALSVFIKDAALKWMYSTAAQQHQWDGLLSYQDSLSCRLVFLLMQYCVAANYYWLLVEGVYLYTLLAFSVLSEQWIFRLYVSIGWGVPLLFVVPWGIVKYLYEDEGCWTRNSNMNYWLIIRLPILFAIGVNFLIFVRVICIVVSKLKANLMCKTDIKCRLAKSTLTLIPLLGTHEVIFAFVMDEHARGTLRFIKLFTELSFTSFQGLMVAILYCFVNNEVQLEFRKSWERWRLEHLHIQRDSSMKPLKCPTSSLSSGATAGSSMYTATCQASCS
Type: cell-based
Method: 5000 of HEK-293 cells, which are used in CRE-luciferase system and express human GCGR or GLP-1R stably, were inoculated into 384 well plates according to […] DMEM/10% FBS media/well. […] After incubation, […] of luciferase reagent was added directly to each plate and mixed gently for 2 minutes. The plates were placed into an Elmer Perkin plate reader for reading. Concentration curve of the compound was made by drawing software Prism 5, and the EC50 value was calculated.
In the case of CC(C)C[C@H](NC(=O)[C@H](CC(C)C)NC(=O)[C@H](Cc1c[nH]c2ccccc12)NC(=O)[C@H](CCC(=O)O)NC(=O)[C@@H](NC(=O)[C@H](Cc1ccccc1)NC(=O)[C@H](CC(=O)O)NC(=O)[C@H](Cc1c[nH]cn1)NC(=O)[C@H](C)NC(=O)[C@H](C)NC(=O)[C@H](CCCCNC(=O)CCOCCOCCNC(=O)CCOCCOCCNC(=O)CC[C@H](NC(=O)CCCCCCCCCCCCCCCCC(=O)O)C(=O)O)NC(=O)[C@H](CO)NC(=O)[C@H](CC(=O)O)NC(=O)[C@H](CC(C)C)NC(=O)[C@H](Cc1ccc(O)cc1)NC(=O)[C@H](CCCCN)NC(=O)[C@H](CO)NC(=O)[C@H](Cc1ccc(O)cc1)NC(=O)[C@H](CC(=O)O)NC(=O)[C@H](CO)NC(=O)[C@@H](NC(=O)[C@H](Cc1ccccc1)NC(=O)[C@@H](NC(=O)CNC(=O)[C@H](CCC(N)=O)NC(=O)[C@@H](CO)NC(=O)[C@@H](N)Cc1c[nH]cn1)[C@@H](C)O)[C@@H](C)O)C(C)C)C(=O)N[C@@H](CCCNC(=N)N)C(=O)N[C@@H](C)C(N)=O [Compound 1], the GLP-1R/GCGR is reported as 0.4. CC(C)C[C@H](NC(=O)[C@H](CC(C)C)NC(=O)[C@H](Cc1c[nH]c2ccccc12)NC(=O)[C@H](CCC(=O)O)NC(=O)[C@@H](NC(=O)[C@H](Cc1ccccc1)NC(=O)[C@H](CC(=O)O)NC(=O)[C@H](Cc1c[nH]cn1)NC(=O)[C@H](C)NC(=O)[C@H](C)NC(=O)[C@H](CCCCNC(=O)CCOCCOCCNC(=O)CCOCCOCCNC(=O)CC[C@H](NC(=O)CCCCCCCCCCCCCCCCC(=O)O)C(=O)O)NC(=O)[C@H](CO)NC(=O)[C@H](CC(=O)O)NC(=O)[C@H](CC(C)C)NC(=O)[C@H](Cc1ccc(O)cc1)NC(=O)[C@H](CCCCN)NC(=O)[C@H](CO)NC(=O)[C@H](Cc1ccc(O)cc1)NC(=O)[C@H](CC(=O)O)NC(=O)[C@H](CO)NC(=O)[C@@H](NC(=O)[C@H](Cc1ccccc1)NC(=O)[C@@H](NC(=O)CNC(=O)[C@H](CCC(N)=O)NC(=O)[C@@H](CO)NC(=O)[C@@H](N)Cc1c[nH]cn1)[C@@H](C)O)[C@@H](C)O)C(C)C)C(=O)N[C@@H](CC(N)=O)C(=O)NCC(=O)NCC(=O)N1CCC[C@H]1C(=O)N[C@@H](CO)C(=O)N[C@@H](CO)C(=O)NCC(=O)N[C@@H](C)C(=O)N1CCC[C@H]1C(=O)N1CCC[C@H]1C(=O)N1CCC[C@H]1C(=O)N[C@@H](CO)C(N)=O [Compound 3] gave a GLP-1R/GCGR of 0.6. CCCCCCCCCCCCCCCC(=O)NCCOCCOCCC(=O)NCCOCCOCCC(=O)NCCCC[C@H](NC(=O)[C@H](CO)NC(=O)[C@H](Cc1ccc(O)cc1)NC(=O)[C@H](CC(=O)O)NC(=O)[C@H](CO)NC(=O)[C@@H](NC(=O)[C@H](Cc1ccccc1)NC(=O)[C@@H](NC(=O)CNC(=O)[C@H](CCC(N)=O)NC(=O)[C@@H](CO)NC(=O)[C@@H](N)Cc1c[nH]cn1)[C@@H](C)O)[C@@H](C)O)C(=O)N[C@@H](CCCCN)C(=O)N[C@@H](CC(C)C)C(=O)N[C@@H](CC(=O)O)C(=O)NC(C)(C)C(=O)N[C@@H](CCCNC(=N)N)C(=O)N[C@@H](CCCNC(=N)N)C(=O)N[C@@H](C)C(=O)N[C@@H](CCC(N)=O)C(=O)N[C@@H](CC(=O)O)C(=O)N[C@@H](Cc1ccccc1)C(=O)N[C@H](C(=O)N[C@@H](CCC(N)=O)C(=O)N[C@@H](Cc1c[nH]c2ccccc12)C(=O)N[C@@H](CC(C)C)C(=O)N[C@@H](CCSC)C(=O)N[C@@H](CC(N)=O)C(=O)N[C@H](C(=O)NCC(=O)NCC(=O)N1CCC[C@H]1C(=O)N[C@@H](CO)C(=O)N[C@@H](CO)C(=O)NCC(=O)N[C@@H](C)C(=O)N1CCC[C@H]1C(=O)N1CCC[C@H]1C(=O)N1CCC[C@H]1C(=O)N[C@@H](CO)C(N)=O)[C@@H](C)O)C(C)C [Compound 15] was tested, and the GLP-1R/GCGR was 2.5. CCCCCCCCCCCCCCCC(=O)N[C@@H](CCC(=O)NCCOCCOCCC(=O)NCCOCCOCCC(=O)NCCCC[C@H](NC(=O)[C@H](CC(=O)O)NC(=O)[C@H](CC(C)C)NC(=O)[C@H](Cc1ccc(O)cc1)NC(=O)[C@H](CCCCN)NC(=O)[C@H](CO)NC(=O)[C@H](Cc1ccc(O)cc1)NC(=O)[C@H](CC(=O)O)NC(=O)[C@H](CO)NC(=O)[C@@H](NC(=O)[C@H](Cc1ccccc1)NC(=O)[C@@H](NC(=O)CNC(=O)[C@H](CCC(N)=O)NC(=O)[C@@H](CO)NC(=O)[C@@H](N)Cc1c[nH]cn1)[C@@H](C)O)[C@@H](C)O)C(=O)N[C@@H](CCCNC(=N)N)C(=O)N[C@@H](CCCNC(=N)N)C(=O)N[C@@H](C)C(=O)N[C@@H](CCC(N)=O)C(=O)N[C@@H](CC(=O)O)C(=O)N[C@@H](Cc1ccccc1)C(=O)N[C@H](C(=O)N[C@@H](CCC(N)=O)C(=O)N[C@@H](Cc1c[nH]c2ccccc12)C(=O)N[C@@H](CC(C)C)C(=O)N[C@@H](CCSC)C(=O)N[C@@H](CC(N)=O)C(=O)N[C@H](C(=O)NCC(=O)NCC(=O)N1CCC[C@H]1C(=O)N[C@@H](CO)C(=O)N[C@@H](CO)C(=O)NCC(=O)N[C@@H](C)C(=O)N1CCC[C@H]1C(=O)N1CCC[C@H]1C(=O)N1CCC[C@H]1C(=O)N[C@@H](CO)C(N)=O)[C@@H](C)O)C(C)C)C(=O)O [Compound 10] showed a GLP-1R/GCGR of 3.3. CSCC[C@H](NC(=O)[C@H](CC(C)C)NC(=O)[C@H](Cc1c[nH]c2ccccc12)NC(=O)[C@H](CCC(N)=O)NC(=O)[C@@H](NC(=O)[C@H](Cc1ccccc1)NC(=O)[C@H](CC(=O)O)NC(=O)[C@H](CCC(N)=O)NC(=O)[C@H](C)NC(=O)[C@H](CCCNC(=N)N)NC(=O)[C@H](CCCNC(=N)N)NC(=O)C(C)(C)NC(=O)[C@H](CC(=O)O)NC(=O)[C@H](CC(C)C)NC(=O)[C@H](CCCCN)NC(=O)[C@H](CCCCNC(=O)CCOCCOCCNC(=O)CCOCCOCCNC(=O)CCCCCCCCCCCCCCCCC(=O)O)NC(=O)[C@H](CO)NC(=O)[C@H](Cc1ccc(O)cc1)NC(=O)[C@H](CC(=O)O)NC(=O)[C@H](CO)NC(=O)[C@@H](NC(=O)[C@H](Cc1ccccc1)NC(=O)[C@@H](NC(=O)CNC(=O)[C@H](CCC(N)=O)NC(=O)[C@@H](CO)NC(=O)[C@@H](N)Cc1c[nH]cn1)[C@@H](C)O)[C@@H](C)O)C(C)C)C(=O)N[C@@H](CC(N)=O)C(=O)N[C@H](C(=O)NCC(=O)NCC(=O)N1CCC[C@H]1C(=O)N[C@@H](CO)C(=O)N[C@@H](CO)C(=O)NCC(=O)N[C@@H](C)C(=O)N1CCC[C@H]1C(=O)N1CCC[C@H]1C(=O)N1CCC[C@H]1C(=O)N[C@@H](CO)C(N)=O)[C@@H](C)O [Compound 16] showed a GLP-1R/GCGR of 3. Work on CSCC[C@H](NC(=O)[C@H](CC(C)C)NC(=O)[C@H](Cc1c[nH]c2ccccc12)NC(=O)[C@H](CCC(N)=O)NC(=O)[C@@H](NC(=O)[C@H](Cc1ccccc1)NC(=O)[C@H](CC(=O)O)NC(=O)[C@H](CCC(N)=O)NC(=O)[C@H](C)NC(=O)[C@H](CCCNC(=N)N)NC(=O)[C@H](CCCCNC(=O)CCOCCOCCNC(=O)CCOCCOCCNC(=O)CC[C@H](NC(=O)CCCCCCCCCCCCCCCCC(=O)O)C(=O)O)NC(=O)C(C)(C)NC(=O)[C@H](CC(=O)O)NC(=O)[C@H](CC(C)C)NC(=O)[C@H](Cc1ccc(O)cc1)NC(=O)[C@H](CCCCN)NC(=O)[C@H](CO)NC(=O)[C@H](Cc1ccc(O)cc1)NC(=O)[C@H](CC(=O)O)NC(=O)[C@H](CO)NC(=O)[C@@H](NC(=O)[C@H](Cc1ccccc1)NC(=O)[C@@H](NC(=O)CNC(=O)[C@H](CCC(N)=O)NC(=O)[C@@H](CO)NC(=O)[C@@H](N)Cc1c[nH]cn1)[C@@H](C)O)[C@@H](C)O)C(C)C)C(=O)N[C@@H](CC(N)=O)C(=O)N[C@H](C(=O)NCC(=O)NCC(=O)N1CCC[C@H]1C(=O)N[C@@H](CO)C(=O)N[C@@H](CO)C(=O)NCC(=O)N[C@@H](C)C(=O)N1CCC[C@H]1C(=O)N1CCC[C@H]1C(=O)N1CCC[C@H]1C(=O)N[C@@H](CO)C(N)=O)[C@@H](C)O [Compound 14] yielded a GLP-1R/GCGR of 2.1. CC[C@H](C)[C@H](NC(=O)[C@H](Cc1ccccc1)NC(=O)[C@H](CCC(=O)O)NC(=O)[C@H](CCCCNC(=O)CCOCCOCCNC(=O)CCOCCOCCNC(=O)CC[C@H](NC(=O)CCCCCCCCCCCCCCCCC(=O)O)C(=O)O)NC(=O)[C@H](C)NC(=O)[C@H](C)NC(=O)[C@H](CCCCN)NC(=O)[C@H](CCC(=O)O)NC(=O)[C@H](CC(=O)O)NC(=O)[C@H](CC(C)C)NC(=O)[C@H](Cc1ccc(O)cc1)NC(=O)[C@H](CCCCN)NC(=O)[C@H](CO)NC(=O)[C@H](Cc1ccc(O)cc1)NC(=O)[C@H](CC(=O)O)NC(=O)[C@H](CO)NC(=O)[C@@H](NC(=O)[C@H](Cc1ccccc1)NC(=O)[C@@H](NC(=O)CNC(=O)[C@H](CCC(N)=O)NC(=O)[C@@H](CO)NC(=O)[C@@H](N)Cc1c[nH]cn1)[C@@H](C)O)[C@@H](C)O)C(=O)N[C@@H](CCC(=O)O)C(=O)N[C@@H](Cc1c[nH]c2ccccc12)C(=O)N[C@@H](CC(C)C)C(=O)N[C@@H](CC(C)C)C(=O)N[C@@H](CCCNC(=N)N)C(=O)N[C@@H](C)C(N)=O [Compound 2] (H-H[dS]QGTFTSDYSKYLDEKAAK([PEG2-PEG2-γGlu-C18 diacid])EFIEWLLRA-NH2) showed a GLP-1R/GCGR of 0.1. In the case of CSCC[C@H](NC(=O)[C@H](CC(C)C)NC(=O)[C@H](Cc1c[nH]c2ccccc12)NC(=O)[C@H](CCC(N)=O)NC(=O)[C@@H](NC(=O)[C@H](Cc1ccccc1)NC(=O)[C@H](CC(=O)O)NC(=O)[C@H](CCC(N)=O)NC(=O)[C@H](C)NC(=O)[C@H](CCCNC(=N)N)NC(=O)[C@H](CCCCNC(=O)CCOCCOCCNC(=O)CCOCCOCCNC(=O)CCCCCCCCCCCCCCCCC(=O)O)NC(=O)C(C)(C)NC(=O)[C@H](CC(=O)O)NC(=O)[C@H](CC(C)C)NC(=O)[C@H](Cc1ccc(O)cc1)NC(=O)[C@H](CCCCN)NC(=O)[C@H](CO)NC(=O)[C@H](Cc1ccc(O)cc1)NC(=O)[C@H](CC(=O)O)NC(=O)[C@H](CO)NC(=O)[C@@H](NC(=O)[C@H](Cc1ccccc1)NC(=O)[C@@H](NC(=O)CNC(=O)[C@H](CCC(N)=O)NC(=O)[C@@H](CO)NC(=O)[C@@H](N)Cc1c[nH]cn1)[C@@H](C)O)[C@@H](C)O)C(C)C)C(=O)N[C@@H](CC(N)=O)C(=O)N[C@H](C(=O)NCC(=O)NCC(=O)N1CCC[C@H]1C(=O)N[C@@H](CO)C(=O)N[C@@H](CO)C(=O)NCC(=O)N[C@@H](C)C(=O)N1CCC[C@H]1C(=O)N1CCC[C@H]1C(=O)N1CCC[C@H]1C(=O)N[C@@H](CO)C(N)=O)[C@@H](C)O [Compound 12] (H-H[dS]QGTFTSDYSKYLD[Aib]K([PEG2-PEG2-C18 diacid])RAQDFVQWLMNTGGPSSGAPPPS-NH2; N-terminus assumed), the GLP-1R/GCGR is reported as 2.1.
